According to patent US20050209278A1, “Piperidinyl- and piperazinyl-sulfonylmethyl hydroxamic acids and their use as protease inhibitors” (priority 2002, published 2005):
Read-outs that look alike come from different tables or passages of the source.

Tests used:
Format in all cases: biochemical
MMP-2 [1] = molecular target: T1, MMP-2 (Homo sapiens, UniProt P08253); test: In vitro MMP inhibition, Ki determination (fluorogenic substrate II); conditions: read-out: MMP-2 Ki
T1 construct: made in house; host or cells: MMP-2-transfected p2AHT2 cells
T1 sequence (P08253 110-660): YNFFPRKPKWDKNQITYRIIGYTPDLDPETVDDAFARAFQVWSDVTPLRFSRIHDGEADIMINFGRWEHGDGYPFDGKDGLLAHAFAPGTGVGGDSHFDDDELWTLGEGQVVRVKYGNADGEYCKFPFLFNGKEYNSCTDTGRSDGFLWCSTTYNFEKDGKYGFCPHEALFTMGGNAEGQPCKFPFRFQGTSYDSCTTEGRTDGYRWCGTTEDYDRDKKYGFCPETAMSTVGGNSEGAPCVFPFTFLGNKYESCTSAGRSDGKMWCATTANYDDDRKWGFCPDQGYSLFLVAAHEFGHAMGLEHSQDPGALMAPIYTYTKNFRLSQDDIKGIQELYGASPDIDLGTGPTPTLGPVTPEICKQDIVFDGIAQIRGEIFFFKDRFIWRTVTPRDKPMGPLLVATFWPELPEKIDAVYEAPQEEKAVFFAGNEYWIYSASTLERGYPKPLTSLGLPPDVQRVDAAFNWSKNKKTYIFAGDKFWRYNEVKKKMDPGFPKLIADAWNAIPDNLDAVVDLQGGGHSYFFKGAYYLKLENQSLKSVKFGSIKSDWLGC
Description: (§1) Several hydroxamic acids and salts thereof were analyzed in in vitro assays to determine their ability to inhibit the MMP cleavage of peptide substrates. […] and IC50 constants were calculated from the assayed hydroxamic acid-MMP interactions.
(§2) Human recombinant MMP-1, MMP-2, MMP-9, MMP-13, and MMP-14 were used in this assay. All enzymes were prepared in Assignee's laboratories following usual laboratory procedures. Protocols for the preparation and use of these enzymes are available in the scientific literature. See, e.g., Enzyme Nomenclature (Academic Press, San Diego, Calif., 1992) (and the citations therein). See also, Freije et al., “Molecular cloning and expression of collagenase-3, a novel human matrix metalloproteinase produced by breast carcinomas,” J Biol. Chem., 269(24), 16766-16773 (1994).
The MMP-2 proenzyme was purified by gelatin Sepharose chromatography from MMP-2-transfected p2AHT2 cells provided by Dr. Gregory Goldberg of Washington University (St. Louis, Mo.).
(§3) All MMPs were activated using 4-aminophenylmercuric acetate (“APMA”, Sigma Chemical, St. Louis, Mo.) or trypsin. MMP-9 also was activated using human recombinant MMP-3 (purified in Assignee's laboratory following standard cloning and purification techniques).
(§4) Two fluorogenic, methoxycoumarin-containing polypeptide substrates were used in the MMP inhibition assays: [drawing 427] Here, “Dpa” is 3-(2,4-dinitrophenyl)-L-2,3-diaminopropionyl group, and “MCA” is 7-methoxycoumarin-4-yl acetyl. Substrate (I) was purchased from Baychem (Redwood City, Calif.), and substrate II was prepared Assignee's laboratory. Substrate I was used in the IC50 determination assays, while substrate II was used in the Ki determination assays. In the absence of MMP inhibitory activity, either substrate is cleaved at the Gly-Leu peptide bond. This cleavage separates the highly fluorogenic peptide from the 2,4-dinitrophenyl quencher, thus resulting in increase of fluorescent intensity.
(§5) The stock solutions of the assayed hydroxamic acids (or salts thereof) were prepared in 1% dimethyl sulfoxide (DMSO). These stock solutions were diluted in Buffer A (100 mM Tris-HCl, 100 mM NaCl, 10 mM CaCl2, 0.05% polyoxyethylene 23 lauryl ether, pH 7.5) to obtain solutions with different hydroxamic acid concentrations, i.e., assay solutions with different concentrations of the assayed MMP inhibitory compound. The experiment controls contained the same amount of Buffer A/DMSO as the assayed sample, but contained no hydroxamic acid (or salt thereof).
The assays from which the Ki determinations were made were performed as follows. The assayed hydroxamic acid samples were incubated in separate wells of untreated white polystyrene plates (Nunc Nalgene International, Rochester, N.Y.), and analyzed on a Tecan SpectraFlour Plus plate reader. The excitation wavelength was 330 nm, and the emission wavelength—420 nm. All samples (assayed hydroxamic acids and controls) were incubated in separate plate wells at room temperature for 1 hr in the presence of 4 μM of MMP substrate (II). In the absence of MMP inhibitory activity, substrate II was cleaved at the Gly-Leu bond resulting in an increase of relative fluorescence. Inhibition was observed as a reduced rate of this increase in relative fluorescence. The various hydroxamic acids were analyzed using a single low enzyme concentration with a single substrate concentration fixed at or below the Km. This protocol is a modification of method by Knight et al., FEBS Lett., 296(3), 263-266 (1992). Apparent inhibitory constants were determined by non-linear regression of reaction velocity as a function of inhibitor and enzyme concentration using Morrison's equation, as described by Kuzmic, Anal. Biochem. 286, 45-50 (2000). […] Since the substrate concentration was chosen to be at or below the Km, the apparent Ki's from this analysis were reported as Ki's without correction for the influence of substrate.

MMP-13 [2] = molecular target: T2, MMP-13 (Homo sapiens, UniProt P45452); test: as above; conditions: read-out: MMP-13 Ki
T2 construct: made in house; host or cells: baculovirus / insect cells
Description: as §1, §2
The MMP-13 was obtained as a proenzyme from a full-length cDNA clone using baculovirus, as described by V. A. Luckow, “Insect Cell Expression Technology,” Protein Engineering: Principles and Practice, pp. 183-218 (edited by J. L. Cleland et al., Wiley-Liss, Inc., 1996). The expressed proenzyme was first purified over a heparin agarose column, and then over a chelating zinc chloride column. The proenzyme was then activated by APMA for use in the assay. […] See also, O'Reilly et al, Baculovirus Expression Vectors: A Laboratory Manual (W.H. Freeman and Co., New York, N.Y., 1992). See also, King et al., The Baculovirus Expression System: A Laboratory Guide (Chapman & Hall, London, England, 1992).
as §3, §4, §5
The assays from which the Ki determinations were made were performed as follows. The assayed hydroxamic acid samples were incubated in separate wells of untreated white polystyrene plates (Nunc Nalgene International, Rochester, N.Y.), and analyzed on a Tecan SpectraFlour Plus plate reader. The excitation wavelength was 330 nm, and the emission wavelength—420 nm. All samples (assayed hydroxamic acids and controls) were incubated in separate plate wells at room temperature for 1 hr in the presence of 4 μM of MMP substrate (II). In the absence of MMP inhibitory activity, substrate II was cleaved at the Gly-Leu bond resulting in an increase of relative fluorescence. Inhibition was observed as a reduced rate of this increase in relative fluorescence. The various hydroxamic acids were analyzed using a single low enzyme concentration with a single substrate concentration fixed at or below the Km.

MMP-1 = molecular target: T3, MMP-1 (Homo sapiens, UniProt P03956); test: MMP-1 inhibition (in vitro Ki)
T3 construct: made in house; host or cells: MMP-1-transfected HT-1080 cells (spent media)
T3 sequence (P03956 100-469): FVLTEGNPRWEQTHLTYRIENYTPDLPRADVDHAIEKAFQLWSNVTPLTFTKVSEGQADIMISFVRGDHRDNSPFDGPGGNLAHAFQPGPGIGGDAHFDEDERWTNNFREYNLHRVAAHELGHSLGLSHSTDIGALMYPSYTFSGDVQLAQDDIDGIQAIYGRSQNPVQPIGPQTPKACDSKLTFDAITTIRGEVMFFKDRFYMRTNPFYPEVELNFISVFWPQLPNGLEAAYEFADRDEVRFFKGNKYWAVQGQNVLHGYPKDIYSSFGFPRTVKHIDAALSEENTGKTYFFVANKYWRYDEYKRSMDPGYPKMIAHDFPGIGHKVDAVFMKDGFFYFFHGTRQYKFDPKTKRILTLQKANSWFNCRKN

MMP-2 [3] = molecular target: T1, MMP-2; test: MMP-2 inhibition (in vitro Ki)
MMP-9 = molecular target: T4, MMP-9 (Homo sapiens, UniProt P14780); test: MMP-9 inhibition (in vitro Ki)
T4 construct: made in house; host or cells: MMP-9-transfected HT1080 cells (spent media)

MMP-13 [4] = molecular target: T2, MMP-13; test: MMP-13 inhibition (in vitro Ki); conditions: Table 8; read-out: MMP-13 Ki
MMP-14 = molecular target: T5, MMP-14 (Homo sapiens, UniProt P50281); test: MMP-14 inhibition (in vitro Ki)
T5 construct: The catalytic domain enzyme was expressed in E. coli inclusion bodies, solubilized in urea; made in house

T4 sequence (P14780 107-707 limits assumed): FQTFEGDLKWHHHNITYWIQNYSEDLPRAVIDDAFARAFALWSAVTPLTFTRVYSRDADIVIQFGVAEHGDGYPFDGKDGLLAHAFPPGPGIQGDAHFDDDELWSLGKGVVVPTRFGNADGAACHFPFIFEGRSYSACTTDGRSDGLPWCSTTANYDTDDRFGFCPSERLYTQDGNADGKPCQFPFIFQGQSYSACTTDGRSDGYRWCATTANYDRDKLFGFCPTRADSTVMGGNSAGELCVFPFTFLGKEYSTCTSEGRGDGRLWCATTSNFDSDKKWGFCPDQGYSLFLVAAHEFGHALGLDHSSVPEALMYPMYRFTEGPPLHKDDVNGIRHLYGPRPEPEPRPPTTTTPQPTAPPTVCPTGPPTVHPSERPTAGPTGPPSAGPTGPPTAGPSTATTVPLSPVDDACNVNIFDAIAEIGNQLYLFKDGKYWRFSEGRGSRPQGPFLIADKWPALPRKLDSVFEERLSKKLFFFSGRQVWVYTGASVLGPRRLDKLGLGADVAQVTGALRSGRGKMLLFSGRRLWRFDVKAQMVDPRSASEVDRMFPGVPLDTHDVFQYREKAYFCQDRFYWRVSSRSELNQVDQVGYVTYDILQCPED

SMILES	Ki (MMP-1; Table 8, read-out: MMP-1 Ki) [nM]	Ki (MMP-2 [3]; Table 8, read-out: MMP-2 Ki) [nM]	Ki (MMP-9; Table 8, read-out: MMP-9 Ki) [nM]	Ki (MMP-13 [4]) [nM]	Ki (MMP-14; Table 8, read-out: MMP-14 Ki) [nM]	other results
CCc1ccc(N2CCN(S(=O)(=O)C3(C(=O)NO)CCOCC3)CC2)nc1 [Example 137]	–	–	–	–	–	Ki (MMP-2 [1]; value not in parenthesis): 0.37 nM; Ki (MMP-13 [2]; value not in parenthesis): 0.75 nM
Cc1cccc(-c2csc(N3CCN(S(=O)(=O)C4(C(=O)NO)CCOCC4)CC3)n2)c1 [Example 414]	–	–	–	–	–	Ki (MMP-2 [1]; value outside parentheses): 2660 nM; Ki (MMP-13 [2]; value outside parentheses): 4190 nM
O=C(NO)C1(S(=O)(=O)N2CCC(CCCCCOCC(F)(F)F)CC2)CCOCC1 [Example A35, 4-{4-[5-(2,2,2-trifluoro-ethoxy)-pentyl]-piperidine-1-sulfonyl}-tetrahydro-pyran-4-carboxylic Acid Hydroxyamide]	5290	2.22	2.68	0.28	1710	–
CCCCCCOC1CCN(S(=O)(=O)C2(C(=O)NO)CCOCC2)CC1 [Example A36, 4-(4-hexyloxy-piperidine-1-sulfonyl)-tetrahydro-pyran-4-carboxylic Acid Hydroxyamide]	> 10000	3.51	0.95	5.92	1940	–
CCCCCOC1CCN(S(=O)(=O)C2(C(=O)NO)CCOCC2)CC1 [Example A36A]	> 10000	6	2.65	9.36	816	–
CCCCCCCCOC1CCN(S(=O)(=O)C2(C(=O)NO)CCOCC2)CC1 [Example A36B]	> 10000	1.87	1.34	0.63	1080	–
CCCCC=CCCOC1CCN(S(=O)(=O)C2(C(=O)NO)CCOCC2)CC1 [Example A36C]	> 10000	3.93	3.41	1.22	1900	–
CC(C)CCCOC1CCN(S(=O)(=O)C2(C(=O)NO)CCOCC2)CC1 [Example A36D]	> 10000	11.9	39.1	19.9	4060	–
CC(C)(C)CCOC1CCN(S(=O)(=O)C2(C(=O)NO)CCOCC2)CC1 [Example A36E]	> 10000	112	365	65.8	4250	–
CC(C)CCCCCOC1CCN(S(=O)(=O)C2(C(=O)NO)CCOCC2)CC1 [Example A36F]	> 10000	2.47	2.26	1.11	1900	–
O=C(NO)C1(S(=O)(=O)N2CCC(OCCCc3ccccc3)CC2)CCOCC1 [Example A36G]	> 10000	31.1	16.4	30.2	2610	–
CCCCOCCOC1CCN(S(=O)(=O)C2(C(=O)NO)CCOCC2)CC1 [Example A36H]	> 10000	60.1	45.7	70.5	> 10000	–
CCCCOCCCC1CCN(S(=O)(=O)C2(C(=O)NO)CCOCC2)CC1 [Example A36I]	> 10000	9.08	2.57	7.7	6370	–
O=C(NO)C1(S(=O)(=O)N2CCC(N3CCN(c4ccc(F)cc4)CC3)CC2)CCOCC1 [Example A197]	–	–	–	–	–	Ki (MMP-1; Table 9, read-out: MMP-1 Ki (IC-50)): > 10000 nM; Ki (MMP-2 [3]; Table 9, read-out: MMP-2 Ki (IC-50)): 770 nM; Ki (MMP-9; Table 9, read-out: MMP-9 Ki (IC-50)): 1620 nM; Ki (MMP-14; Table 9, read-out: MMP-14 Ki (IC-50)): > 10000 nM
